Consider 50 compounds from US12064426B2, “Selective inhibitors of ROCK1 and ROCK2 protein kinases and uses thereof” (GENOSCO Inc., priority 2021, dated 2024).

Molecules are shown by their SMILES. A value given as a limit tells only on which side of the number the result lay.

The target of experiment [1] is T1, Recombinant ROCK1 (amino acids 1-477) (Homo sapiens, UniProt Q13464).
T1 construct: Recombinant ROCK1 (amino acids 1-477); by word order, ROCK1 from Carna Biosciences
Kind of experiment: ROCK inhibition assay, LANCE Ultra TR-FRET kinase assay (ROCK1). It counts as biochemical. Conditions: 1 μM ATP, 50 nM ULight-CREBtide substrate. The method, boiled down: (§1)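 LANCE Ultra TR-FRET kinase assay with recombinant ROCK1 (aa 1-477) or ROCK2 (aa 5-554), 50 nM ULight-CREBtide and ATP at 1 μM (ROCK1) or 4 μM (ROCK2) in HEPES pH 7.5 with MgCl2, 1 h at room temperature. EDTA stop with Eu anti-phospho-CREB Ser133 antibody; 665/615 nm read gives IC50.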

Experiment [2] addresses T2, Recombinant ROCK2 (amino acids 5-554) (Homo sapiens, UniProt O75116).
T2 construct: ROCK2 (amino acids 5-554); by word order, ROCK2 from SignalChem
Kind of experiment: ROCK inhibition assay, LANCE Ultra TR-FRET kinase assay (ROCK2). It counts as biochemical. Conditions: 4 μM ATP, 50 nM ULight-CREBtide substrate. The method, boiled down:
as §1
A general note: Time-resolved FRET reads energy transfer from a long-lived donor to a nearby acceptor.

T1 sequence (Q13464 1-477): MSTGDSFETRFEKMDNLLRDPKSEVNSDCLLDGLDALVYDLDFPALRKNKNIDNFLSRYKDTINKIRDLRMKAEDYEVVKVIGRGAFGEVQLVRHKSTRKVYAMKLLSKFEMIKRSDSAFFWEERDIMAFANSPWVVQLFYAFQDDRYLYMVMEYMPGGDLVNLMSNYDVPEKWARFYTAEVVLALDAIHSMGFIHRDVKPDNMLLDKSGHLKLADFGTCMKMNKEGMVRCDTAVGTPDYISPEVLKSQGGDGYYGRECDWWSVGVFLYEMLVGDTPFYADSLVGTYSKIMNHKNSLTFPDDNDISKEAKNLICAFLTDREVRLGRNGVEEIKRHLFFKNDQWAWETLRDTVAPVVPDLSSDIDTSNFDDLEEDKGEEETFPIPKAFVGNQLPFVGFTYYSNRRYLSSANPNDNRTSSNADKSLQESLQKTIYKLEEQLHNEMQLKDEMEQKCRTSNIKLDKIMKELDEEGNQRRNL
T2 sequence (O75116 5-554): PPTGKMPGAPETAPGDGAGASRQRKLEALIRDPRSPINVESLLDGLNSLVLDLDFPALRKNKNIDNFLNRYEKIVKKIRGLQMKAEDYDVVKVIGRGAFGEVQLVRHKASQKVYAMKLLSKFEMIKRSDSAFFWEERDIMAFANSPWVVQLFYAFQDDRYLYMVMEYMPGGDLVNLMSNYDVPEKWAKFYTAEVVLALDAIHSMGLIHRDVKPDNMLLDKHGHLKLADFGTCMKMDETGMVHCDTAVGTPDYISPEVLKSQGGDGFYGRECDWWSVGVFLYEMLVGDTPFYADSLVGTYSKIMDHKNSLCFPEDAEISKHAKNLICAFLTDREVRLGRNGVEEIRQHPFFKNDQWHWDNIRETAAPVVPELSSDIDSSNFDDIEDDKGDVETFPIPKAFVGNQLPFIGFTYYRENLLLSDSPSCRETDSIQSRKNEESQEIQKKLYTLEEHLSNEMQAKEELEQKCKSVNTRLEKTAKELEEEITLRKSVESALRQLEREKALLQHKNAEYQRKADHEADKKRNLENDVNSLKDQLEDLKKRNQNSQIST

Turning to `CNC(=O)c1cccc(Cn2cnc3cc(-c4cn[nH]c4)ccc3c2=O)c1` [Compound 366, N-methyl-3-((4-oxo-7-(1H-pyrazol-4-yl)quinazolin-3(4H)-yl)methyl)benzamide], the IC50 (commonly the concentration that gives 50% inhibition) was 11 to 100 nM in experiment [1] and less than 10 nM in experiment [2].

Turning to `CNC(=O)c1cccc(Cn2cnc3cc(-c4cn[nH]c4C(F)(F)F)ccc3c2=O)c1` [Compound 367], the results for the IC50 in experiment [1] and in experiment [2] were 11 to 100 nM and less than 10 nM, respectively.

`[2H]C([2H])([2H])NC(=O)c1cccc(Cn2cnc3cc(-c4cn[nH]c4C(F)(F)F)ccc3c2=O)c1` [Compound 368]: the IC50 in experiment [1] was 11 to 100 nM; in experiment [2], less than 10 nM.

For `CC(C)NC(=O)c1cccc(Cn2cnc3cc(-c4cn[nH]c4C(F)(F)F)ccc3c2=O)c1` [Compound 369], the IC50 in experiment [1] was 11 to 100 nM; in experiment [2] it was less than 10 nM.

Consider `O=C(NCCc1ccncc1)c1cccc(Cn2cnc3cc(-c4cn[nH]c4C(F)(F)F)ccc3c2=O)c1` [Compound 370], for which the IC50 in experiment [1] and in experiment [2] was less than 10 nM in each case.

On to `O=C(NCc1ccccc1)c1cccc(Cn2cnc3cc(-c4cn[nH]c4C(F)(F)F)ccc3c2=O)c1` [Compound 371], for which the IC50 was 101 to 500 nM in experiment [1] and 10 to 100 nM in experiment [2].

Turning to `O=C(NCc1ccncc1)c1cccc(Cn2cnc3cc(-c4cn[nH]c4C(F)(F)F)ccc3c2=O)c1` [Compound 372], the IC50 in experiment [1] and in experiment [2] was less than 10 nM each time.

Regarding `CS(=O)(=O)Nc1ccc(CNC(=O)c2cccc(Cn3cnc4cc(-c5cn[nH]c5C(F)(F)F)ccc4c3=O)c2)cc1` [Compound 373], the values for the IC50 in experiment [1] and in experiment [2] were 11 to 100 nM and less than 10 nM, respectively.

For the compound `Cn1ccc(NC(=O)c2cccc(Cn3cnc4cc(-c5cn[nH]c5C(F)(F)F)ccc4c3=O)c2)n1` [Compound 374], the IC50 is 11 to 100 nM in experiment [1] and less than 10 nM in experiment [2].

As for `O=C(Nc1ccon1)c1cccc(Cn2cnc3cc(-c4cn[nH]c4C(F)(F)F)ccc3c2=O)c1` [Compound 375], the IC50 in experiment [1] is 101 to 500 nM; in experiment [2] it was 10 to 100 nM.

For the compound `O=C(NC1CCOCC1)c1cccc(Cn2cnc3cc(-c4cn[nH]c4C(F)(F)F)ccc3c2=O)c1` [Compound 376], the IC50 in experiment [1] was 11 to 100 nM; in experiment [2], less than 10 nM.

In the case of `O=C(NC1CCN(C2COC2)CC1)c1cccc(Cn2cnc3cc(-c4cn[nH]c4C(F)(F)F)ccc3c2=O)c1` [Compound 377], the IC50 in experiment [1] was 11 to 100 nM; in experiment [2], less than 10 nM.

On to `CN1CCC(NC(=O)c2cccc(Cn3cnc4cc(-c5cn[nH]c5C(F)(F)F)ccc4c3=O)c2)CC1` [Compound 378], for which the IC50 in experiment [1] and in experiment [2] was less than 10 nM each time.

Consider `O=C(NCC1CCOCC1)c1cccc(Cn2cnc3cc(-c4cn[nH]c4C(F)(F)F)ccc3c2=O)c1` [Compound 379], for which the results for the IC50 in experiment [1] and in experiment [2] were 11 to 100 nM and less than 10 nM, respectively.

For the compound `O=C(NCC1COC1)c1cccc(Cn2cnc3cc(-c4cn[nH]c4C(F)(F)F)ccc3c2=O)c1` [Compound 380], the values for the IC50 in experiment [1] and in experiment [2] were 11 to 100 nM and less than 10 nM, respectively.

On to `O=C(NCC1CCNCC1)c1cccc(Cn2cnc3cc(-c4cn[nH]c4C(F)(F)F)ccc3c2=O)c1` [Compound 381], for which the IC50 in experiment [1] and in experiment [2] was less than 10 nM each time.

On to `O=C(N[C@H]1CC[C@@H](O)CC1)c1cccc(Cn2cnc3cc(-c4cn[nH]c4C(F)(F)F)ccc3c2=O)c1` [Compound 382], for which the IC50 in experiment [1] was 11 to 100 nM; in experiment [2] it was less than 10 nM.

As for `O=C(N[C@H]1CC[C@H](O)CC1)c1cccc(Cn2cnc3cc(-c4cn[nH]c4C(F)(F)F)ccc3c2=O)c1` [Compound 383], the IC50 in experiment [1] is 11 to 100 nM; in experiment [2] it was less than 10 nM.

With `O=C(NCCO)c1cccc(Cn2cnc3cc(-c4cn[nH]c4C(F)(F)F)ccc3c2=O)c1` [Compound 384], the IC50 was in the range of 11 to 100 nM in experiment [1] and 10 to 100 nM in experiment [2].

Consider `CS(=O)(=O)Nc1ccc(NC(=O)c2cccc(Cn3cnc4cc(-c5cn[nH]c5C(F)(F)F)ccc4c3=O)c2)cc1` [Compound 385], for which the IC50 in experiment [1] lay within 101 to 500 nM; in experiment [2], 10 to 100 nM.

For `CNC(=O)c1cc(F)cc(Cn2cnc3cc(-c4cn[nH]c4C(F)(F)F)ccc3c2=O)c1` [Compound 386], the IC50 is 11 to 100 nM in experiment [1] and less than 10 nM in experiment [2].

On to `[2H]C([2H])([2H])NC(=O)c1cc(F)cc(Cn2cnc3cc(-c4cn[nH]c4C(F)(F)F)ccc3c2=O)c1` [Compound 387], for which the 50% inhibitory concentration (IC50) in experiment [1] is 11 to 100 nM; in experiment [2], less than 10 nM.

For `CNC(=O)c1cc(F)cc(C(C)n2cnc3cc(-c4cn[nH]c4C(F)(F)F)ccc3c2=O)c1` (stereo not shown) [Compound 388], the IC50 in experiment [1] is 11 to 100 nM; in experiment [2] it was less than 10 nM.

Turning to `CNC(=O)c1cc(Cn2cnc3cc(-c4cn[nH]c4C(F)(F)F)ccc3c2=O)ccc1F` [Compound 389], the IC50 in experiment [1] lay within 11 to 100 nM; in experiment [2], 10 to 100 nM.

`CNC(=O)c1cccc(Cn2cnc3cc(-c4cn[nH]c4C(F)F)ccc3c2=O)c1` [Compound 391]: the IC50 in experiment [1] was 11 to 100 nM; in experiment [2], less than 10 nM.

On to `[2H]C([2H])([2H])NC(=O)c1cccc(Cn2cnc3cc(-c4cn[nH]c4C(F)F)ccc3c2=O)c1` [Compound 392], for which the IC50 is 11 to 100 nM in experiment [1] and less than 10 nM in experiment [2].

Turning to `O=C(NCCO)c1cccc(Cn2cnc3cc(-c4cn[nH]c4C(F)F)ccc3c2=O)c1` [Compound 393], the IC50 in experiment [1] is 11 to 100 nM; in experiment [2], less than 10 nM.

Turning to `CN(C)CCNC(=O)c1cccc(Cn2cnc3cc(-c4cn[nH]c4C(F)F)ccc3c2=O)c1` [Compound 394], the values for the IC50 in experiment [1] and in experiment [2] were 11 to 100 nM and 10 to 100 nM, respectively.

Regarding `CN1CCC(CNC(=O)c2cccc(Cn3cnc4cc(-c5cn[nH]c5C(F)F)ccc4c3=O)c2)CC1` [Compound 395], the IC50 in experiment [1] and in experiment [2] was less than 10 nM each time.

As to `O=C(NCC1CCOCC1)c1cccc(Cn2cnc3cc(-c4cn[nH]c4C(F)F)ccc3c2=O)c1` [Compound 396], the figures for the IC50 in experiment [1] and in experiment [2] were 11 to 100 nM and less than 10 nM, respectively.

Turning to `O=C(NCc1ccnc(F)c1)c1cccc(Cn2cnc3cc(-c4cn[nH]c4C(F)F)ccc3c2=O)c1` [Compound 397], the IC50 in experiment [1] is 11 to 100 nM; in experiment [2], less than 10 nM.

Take `CS(=O)(=O)c1cccc(CNC(=O)c2cccc(Cn3cnc4cc(-c5cn[nH]c5C(F)F)ccc4c3=O)c2)c1` [Compound 398]: the IC50 in experiment [1] lay within 101 to 500 nM; in experiment [2], 10 to 100 nM.

Consider `CS(=O)(=O)Nc1cccc(CNC(=O)c2cccc(Cn3cnc4cc(-c5cn[nH]c5C(F)F)ccc4c3=O)c2)c1` [Compound 399], for which the IC50 in experiment [1] was in the range of 101 to 500 nM; in experiment [2], 10 to 100 nM.

Take `CN(C)c1cccc(CNC(=O)c2cccc(Cn3cnc4cc(-c5cn[nH]c5C(F)F)ccc4c3=O)c2)c1` [Compound 400]: the IC50 was in the range of 101 to 500 nM in experiment [1] and 10 to 100 nM in experiment [2].

As to `CNC(=O)c1cc(F)cc(Cn2cnc3cc(-c4cn[nH]c4C(F)F)ccc3c2=O)c1` [Compound 401], the IC50 is 11 to 100 nM in experiment [1] and less than 10 nM in experiment [2].

With `[2H]C([2H])([2H])NC(=O)c1cc(F)cc(Cn2cnc3cc(-c4cn[nH]c4C(F)F)ccc3c2=O)c1` [Compound 402], the IC50 was 11 to 100 nM in experiment [1] and less than 10 nM in experiment [2].

Take `CNC(=O)c1cncc(Cn2cnc3cc(-c4cn[nH]c4Cl)ccc3c2=O)c1` [Compound 403]: the IC50 in experiment [1] was more than 501 nM; in experiment [2], 100 to 500 nM.

Turning to `CNC(=O)c1cccc(Cn2cnc3cc(-c4cn[nH]c4Cl)ccc3c2=O)c1` [Compound 404], the IC50 in experiment [1] and in experiment [2] was less than 10 nM each time.

On to `[2H]C([2H])([2H])NC(=O)c1cccc(Cn2cnc3cc(-c4cn[nH]c4Cl)ccc3c2=O)c1` [Compound 405], for which the IC50 in experiment [1] and in experiment [2] was less than 10 nM throughout.

With `CNC(=O)c1cccc(C(C)n2cnc3cc(-c4cn[nH]c4Cl)ccc3c2=O)c1` (stereo not shown) [Compound 406], the IC50 in experiment [1] was 11 to 100 nM; in experiment [2] it was less than 10 nM.

Regarding `O=C(N[C@H]1CC[C@@H](O)CC1)c1cccc(Cn2cnc3cc(-c4cn[nH]c4Cl)ccc3c2=O)c1` [Compound 407], the figures for the concentration for half-maximal inhibition (IC50) in experiment [1] and in experiment [2] were 11 to 100 nM and less than 10 nM, respectively.

For `CN1CCC(NC(=O)c2cccc(Cn3cnc4cc(-c5cn[nH]c5Cl)ccc4c3=O)c2)CC1` [Compound 408], the IC50 in experiment [1] and in experiment [2] was less than 10 nM each time.

`O=C(NC1CCNCC1)c1cccc(Cn2cnc3cc(-c4cn[nH]c4Cl)ccc3c2=O)c1` [Compound 409]: the IC50 in experiment [1] and in experiment [2] was less than 10 nM throughout.

With `CN1CCC(CNC(=O)c2cccc(Cn3cnc4cc(-c5cn[nH]c5Cl)ccc4c3=O)c2)CC1` [Compound 410], the IC50 in experiment [1] and in experiment [2] was less than 10 nM throughout.

Regarding `CNC(=O)c1cccc(Cn2cnc3cc(-c4conc4C)ccc3c2=O)c1` [Compound 411], the IC50 is 11 to 100 nM in experiment [1] and less than 10 nM in experiment [2].

`[2H]C([2H])([2H])NC(=O)c1cccc(Cn2cnc3cc(-c4conc4C)ccc3c2=O)c1` [Compound 412]: the IC50 was 11 to 100 nM in experiment [1] and less than 10 nM in experiment [2].

Take `Cc1nocc1-c1ccc2c(=O)n(Cc3cccc(C(=O)NC(C)C)c3)cnc2c1` [Compound 414]: the figures for the IC50 in experiment [1] and in experiment [2] were 101 to 500 nM and 10 to 100 nM, respectively.

With `Cc1nocc1-c1ccc2c(=O)n(Cc3cccc(C(=O)NCC4COC4)c3)cnc2c1` [Compound 415], the IC50 is 11 to 100 nM in experiment [1] and less than 10 nM in experiment [2].

Take `Cc1nocc1-c1ccc2c(=O)n(Cc3cccc(C(=O)NCC4CCOCC4)c3)cnc2c1` [Compound 416]: the IC50 in experiment [1] is 11 to 100 nM; in experiment [2], less than 10 nM.

Regarding `Cc1nocc1-c1ccc2c(=O)n(Cc3cccc(C(=O)NCC4CCN(C)CC4)c3)cnc2c1` [Compound 417], the IC50 in experiment [1] and in experiment [2] was less than 10 nM in each case.
